{
  "source": "paper PMC10641236",
  "about": "“Influenza A virus replication has a stronger dependency on Raf/MEK/ERK signaling pathway activity than SARS-CoV-2” (Frontiers in Cellular and Infection Microbiology, 2023)",
  "key": {"[1]": {"system": "MEK1/2 (ERK1/2 phosphorylation)", "experiment": "IC50 determination in virus-infected cells, pERK/ERK ratio by WES", "type": "cell-based, Homo sapiens", "details": "for IC50: Homo sapiens", "procedure": "Calu-3 and Caco-2 cells were seeded in 24-well plates (Greiner Bio-One GmbH, Frickenhausen, Germany) and grown to 90% confluence. The cells were washed once with infection medium [IMDM supplemented with 0.2% bovine serum albumin (BSA) (Carl Roth GmbH + Co. KG, Karlsruhe, Germany) and 1% penicillin–streptomycin] prior to infection with a multiplicity of infection (MOI) of 0.01 of IAV PR8 or SARS-CoV-2 for 1 h in 200 µL of infection medium per well. Afterwards, the virus inoculum was removed completely, and the cells were washed once with infection medium and then treated with 1 mL per well of different concentrations of zapnometinib in infection medium with 1% dimethyl sulfoxide (DMSO) (Merck Millipore, Burlington, MA, USA) for 24 h at 37°C, 5% CO2. Supernatants were harvested and stored at −80°C for subsequent determination of virus titer and EC50 value. Cell lysates were prepared as described in the “Preparation of cell lysates and WES™ analysis” section for WES™ analysis.\nCells were lysed using cold modified RIPA buffer [0.24% (w/v) tris base (Sigma-Aldrich, St. Louis, Missouri, USA), 0.88% (w/v) NaCl (Carl Roth, Karlsruhe, Germany), 0.2% (v/v) 500 mM ethylenediaminetetraacetic acid (EDTA) (Sigma-Aldrich, St. Louis, Missouri, USA), 1% (v/v) Triton X-100 (Sigma-Aldrich, St. Louis, Missouri, USA), 0.5% (w/v) sodium deoxycholate (Sigma-Aldrich, St. Louis, Missouri, USA), 0.1% (w/v) sodium dodecyl sulfate (SDS) (Carl Roth, Karlsruhe, Germany), 10% (v/v) glycerol (Carl Roth, Karlsruhe, Germany), 0.05% phenylmethylsulfonyl fluoride (PMSF) (Carl Roth, Karlsruhe, Germany), 0.01% Benzonase® Nuclease (Sigma-Aldrich, St. Louis, Missouri, USA), protease inhibitor cocktail (Roche, Basel, Switzerland), and phosphatase inhibitor cocktail (Roche, Basel, Switzerland) in water]. Determination of the protein concentration was performed using the Pierce™ BCA Protein Assay Kit (Thermo Fisher Scientific Inc., Waltham, MA, USA) according to the manufacturer’s instructions. The samples were analyzed by Wes™ using a total protein concentration of 0.25–0.5 µg/µL for each sample, the Jess/Wes Separation kit (12–230 kDa), primary antibodies against ERK1/2, p44/42 MAPK (137F5) Rabbit mAb (Cell Signaling Technology, Danvers, MA, USA, Cat. No. 4695S) and phospho-ERK1/2 (pERK1/2), Phospho-p44/42 MAPK (Erk1/2) (Thr202/Tyr204) (D13.14.4E), XP® Rabbit mAb (Cell Signaling Technology, Danvers, MA, USA, Cat. no. 4370S) in a 1:50 dilution, anti-Influenza A virus Nucleoprotein (NP) antibody (rabbit MAb) (Sino Biological, Beijing, China Cat.no 40208-R010) in a 1:150 dilution, SARS-CoV-2 nucleocapsid protein antibody (ProSci Inc., Poway, CA, USA, Cat. no. 35-580) in a 1:100 dilution, the anti-goat, anti-rabbit, and anti-mouse detection modules, and the EZ Standard Pack 1 (12–230 kDa), according to the manufacturer’s instructions. Analysis of the obtained data was performed using the Compass for SW 4.1.0 software, Microsoft Excel, and the GraphPad Prism 9.2.0 software. Ratios were calculated from the area under the curve of the respective detected signals.\nTwenty-four hours before the experiment, the growth medium was exchanged to medium with respective FBS or BSA concentration. Then, cells were stimulated by the addition of tumor necrosis factor alpha (TNF-α) (Sigma-Aldrich, St. Louis, Missouri, USA) for 30 min at 37°C, 5% CO2, followed by treatment with different zapnometinib concentrations and a DMSO (solvent) control for 1 h. For determination of the IC50 value in cells infected with IAV PR8 or SARS-CoV-2, cells were infected with the respective virus and treated with zapnometinib for 24 h as described in the “Virus yield reduction assay” section. After incubation, cell lysates were prepared, and the samples were analyzed by WES™ as described in the “Preparation of cell lysates and WES™ analysis” section. The pERK/ERK ratio was calculated and normalized to the solvent control. […]"}, "SARS-CoV-2 N": {"system": "SARS-CoV-2 N", "type": "cell-based", "details": "MOI 0.01, 24 h; for reduction of SARS-CoV-2 N (N/ERK2 normalized to solvent control): both cell lines"}, "TMPRSS2": {"system": "TMPRSS2", "experiment": "TMPRSS2 expression by flow cytometry", "type": "cell-based, Homo sapiens", "details": "Caco-2 cells, 24 h", "procedure": "For flow cytometry analysis, 6 × 10^5 Caco-2 cells were seeded per well in six-well plates (Greiner Bio-One, Kremsmünster, Austria) and incubated for 24 h at 37°C, 5% CO2. Treatment with zapnometinib or a solvent control (1% DMSO) in medium containing 0.2% BSA was applied for 24 h. A single-cell solution was prepared using TrypLE reagent (Thermo Fisher Scientific, Waltham, MA, USA). Prior to staining, cells were treated with an FcR blocking reagent (Miltenyi Biotec, Bergisch Gladbach, Germany) for 10 min at 4°C. The cells were then stained with either a PE Mouse IgG1Isotype control antibody (BioLegend, San Diego, CA, USA) or a PE anti-human TMPRSS2 Antibody (BioLegend, San Diego, CA, USA), followed by a live-dead staining using the LIVE/DEAD™ Fixable Far Red Dead Cell Stain Kit (Thermo Fisher Scientific, Waltham, MA, USA). Cells were analyzed using the BD FACSCanto II flow cytometer (Becton Dickinson, Franklin Lakes, New Jersey, USA) and the FlowJo software (Becton Dickinson, Franklin Lakes, New Jersey, USA)."}, "IAV PR8": {"system": "IAV PR8", "type": "cell-based", "details": "100 µM, Caco-2 cells, MOI 4, 10 h"}, "SARS-CoV-2": {"system": "SARS-CoV-2", "type": "cell-based", "details": "100 µM, Caco-2 cells, MOI 4, 10 h"}, "IAV RB1": {"system": "IAV RB1", "set-up": "method as in Laure et al., 2020", "details": "IAV RB1, medium containing 0.2% BSA; ref Laure et al., 2020; cited from earlier work"}, "IAV Fukui": {"system": "IAV Fukui", "set-up": "method as in Laure et al., 2020", "details": "medium containing 0.2% BSA, ref Laure et al., 2020; cited from earlier work"}},
  "note": "Read-outs that look alike come from different tables or passages of the source.",
  "data": [
    {"smiles": "O=C(O)c1ccc(F)c(F)c1Nc1ccc(I)cc1Cl", "note": "[zapnometinib, 2-(2-chloro-4-iodophenylamino)-N-3,4-difluoro benzoic acid]", "values": [
      {"measurement": "Level of MEK activation (ERK phosphorylation) at EC50", "setting": "[1]; Caco-2 cells, IAV PR8, interpolated at EC50 5.72 µM", "result": 37, "unit": "%"},
      {"measurement": "Level of MEK activation (ERK phosphorylation) at EC50", "setting": "[1]; Caco-2 cells, SARS-CoV-2, interpolated at EC50 22.9 µM", "result": 25, "unit": "%"},
      {"measurement": "Level of MEK activation (ERK phosphorylation) at EC50", "setting": "[1]; Calu-3 cells, IAV PR8, interpolated at EC50 7.13 µM", "result": 25, "unit": "%"},
      {"measurement": "Level of MEK activation (ERK phosphorylation) at EC50", "setting": "[1]; Calu-3 cells, SARS-CoV-2, interpolated at EC50 19.7 µM", "result": 10, "unit": "%"},
      {"measurement": "IC50", "setting": "[1]; Caco-2, 24 h, read-out: IC50 value (ERK phosphorylation) in infected cells, IAV PR8-infected Caco-2 cells, MOI 0.01, 0.2% BSA, 24 h", "result": 2.24, "unit": "µM"},
      {"measurement": "IC50", "setting": "[1]; Caco-2, 24 h, read-out: IC50 value (ERK phosphorylation) in infected cells, SARS-CoV-2-infected Caco-2 cells, MOI 0.01, 0.2% BSA, 24 h, bottom plateau constrained to 0", "result": 5.65, "unit": "µM"},
      {"measurement": "IC50", "setting": "[1]; Calu-3, 24 h, read-out: IC50 value (ERK phosphorylation) in infected cells, IAV PR8-infected Calu-3 cells, MOI 0.01, 0.2% BSA, 24 h", "result": 1.01, "unit": "µM"},
      {"measurement": "IC50", "setting": "[1]; Calu-3, 24 h, read-out: IC50 value (ERK phosphorylation) in infected cells, SARS-CoV-2-infected Calu-3 cells, MOI 0.01, 0.2% BSA, 24 h", "result": 1.99, "unit": "µM"},
      {"measurement": "reduction of SARS-CoV-2 N (N/ERK2 normalized to solvent control)", "setting": "SARS-CoV-2 N; 12.5 µM", "result": "approximately 50%"},
      {"measurement": "reduction of SARS-CoV-2 N (N/ERK2 normalized to solvent control)", "setting": "SARS-CoV-2 N; 50 µM", "result": "> 70", "unit": "%"},
      {"measurement": "reduction of SARS-CoV-2 N (N/ERK2 normalized to solvent control)", "setting": "SARS-CoV-2 N; 100 µM", "result": "> 80", "unit": "%"},
      {"measurement": "lowest concentration at which SARS-CoV-2 N was significantly reduced compared to solvent control", "setting": "SARS-CoV-2 N", "result": 12.5, "unit": "µM"},
      {"measurement": "increase of TMPRSS2 expression", "setting": "TMPRSS2; 50 µM", "result": 14, "unit": "%"},
      {"measurement": "increase of TMPRSS2 expression", "setting": "TMPRSS2; 100 µM", "result": 17, "unit": "%"},
      {"measurement": "Infected cells (IAV PR8 NP positive) normalized to solvent control", "setting": "IAV PR8", "result": 44.9, "unit": "%"},
      {"measurement": "localization of the IAV NP", "setting": "IAV PR8", "result": "retention of the IAV NP in the nucleus"},
      {"measurement": "Infected cells (SARS-CoV-2 N positive) normalized to solvent control", "setting": "SARS-CoV-2", "result": 18.3, "unit": "%"},
      {"measurement": "amount of SARS-CoV-2 N", "setting": "SARS-CoV-2", "result": "reduced"},
      {"measurement": "distribution of the SARS-CoV-2 N", "setting": "SARS-CoV-2", "result": "did not change"},
      {"measurement": "EC50", "setting": "IAV RB1", "result": 6.36, "unit": "µM"},
      {"measurement": "EC50", "setting": "IAV Fukui", "result": 4.5, "unit": "µM"}
    ]}
  ]
}
